Test results as given in ChEMBL document CHEMBL5463723, “Data for DCP probe BIBO3304” (2023).

Columns and labels:
[1] = target: Adenosine receptor A2a (Homo sapiens) (UniProt P29274); assay: A2A Eurofins-Cerep binding assay; design: ligand concentration 6 nM; conditions: Compound concentration 10.0 uM
[2] = target: D(1A) dopamine receptor (Rattus norvegicus) (UniProt P18901); assay: Activity against D1/R in the Eurofins Panlabs screen (BI) by Radioactive Assay; conditions: Compound concentration 10.0 uM
[3] = target: D(2) dopamine receptor (Rattus norvegicus) (UniProt P61169); assay: Activity against D2/RAC/R in the Eurofins Panlabs screen (BI); conditions: Compound concentration 10.0 uM
[4] = target: Histamine H1 receptor (Cavia porcellus) (UniProt P31389); assay: Activity against H1/CENT/GP in the Eurofins Panlabs screen (BI) by Radioactive Assay; conditions: Compound concentration 10.0 uM
Chain of Histamine H1 receptor (Cavia porcellus) (P31389 whole entry): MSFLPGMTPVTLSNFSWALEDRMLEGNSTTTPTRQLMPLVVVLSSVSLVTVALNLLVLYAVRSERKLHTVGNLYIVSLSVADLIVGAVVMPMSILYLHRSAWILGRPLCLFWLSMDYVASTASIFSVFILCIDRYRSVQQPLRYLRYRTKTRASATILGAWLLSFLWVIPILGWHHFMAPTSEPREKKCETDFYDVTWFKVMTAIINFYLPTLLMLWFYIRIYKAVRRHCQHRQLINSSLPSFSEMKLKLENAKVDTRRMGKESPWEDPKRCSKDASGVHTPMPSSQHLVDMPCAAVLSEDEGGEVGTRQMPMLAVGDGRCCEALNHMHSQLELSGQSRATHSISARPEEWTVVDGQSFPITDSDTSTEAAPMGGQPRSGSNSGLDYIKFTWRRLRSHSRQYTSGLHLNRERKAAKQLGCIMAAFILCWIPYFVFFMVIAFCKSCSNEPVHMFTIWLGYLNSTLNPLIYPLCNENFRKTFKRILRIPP

[5] = target: Muscarinic acetylcholine receptor M2 (Rattus norvegicus) (UniProt P10980); assay: Activity against M2/R in the Eurofins Panlabs screen (BI) by Radioactive Assay; conditions: Compound concentration 10.0 uM
[6] = target: L-type calcium channel (dihydropyridine site), Cav1.2 alpha-1C (Rattus norvegicus, UniProt P22002); assay: Inhibitor of CA+/DHPSI/R in the Eurofins Cerep SafetyScreen44 (BI) by Radioactive Assay (Cerep_161); format: protein assay; design: scale not given: the % may be the effect or the level left; conditions: rat brain, probe [3H](+)PN200-110, compound concentration 10 uM, read-out: % Ctrl
[7] = target: Progesterone receptor (Bos taurus) (UniProt Q690N0); assay: Activity against PROGEST/BO in the Eurofins Panlabs screen (BI) by Radioactive Assay; conditions: Compound concentration 10.0 uM
[8] = target: Beta-2 adrenergic receptor (Homo sapiens) (UniProt P07550); assay: beta 2 Eurofins-Cerep binding assay; conditions: Compound concentration 10.0 uM
Chain of Beta-2 adrenergic receptor (Homo sapiens) (P07550 whole entry, looked up): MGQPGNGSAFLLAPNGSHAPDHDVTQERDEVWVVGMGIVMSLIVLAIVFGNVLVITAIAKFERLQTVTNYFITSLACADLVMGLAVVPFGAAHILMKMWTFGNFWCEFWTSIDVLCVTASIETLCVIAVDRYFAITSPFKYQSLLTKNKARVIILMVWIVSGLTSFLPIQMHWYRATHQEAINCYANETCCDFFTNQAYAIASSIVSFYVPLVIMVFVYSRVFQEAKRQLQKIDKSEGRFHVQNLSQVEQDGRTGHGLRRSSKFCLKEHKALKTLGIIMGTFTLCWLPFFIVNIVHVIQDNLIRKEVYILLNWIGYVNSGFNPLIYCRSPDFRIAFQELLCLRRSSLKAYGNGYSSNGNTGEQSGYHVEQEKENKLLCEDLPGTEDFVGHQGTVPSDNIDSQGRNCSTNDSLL

[9] = target: Tyrosine-protein kinase Fyn (Homo sapiens) (UniProt P06241); assay: Inhibitor of P59TYRKINFYN in the Eurofins Panlabs screen (BI) by FI - fluorescence intensity; conditions: Compound concentration 10.0 uM
Chain of Tyrosine-protein kinase Fyn (Homo sapiens) (P06241 2-537 limits assumed): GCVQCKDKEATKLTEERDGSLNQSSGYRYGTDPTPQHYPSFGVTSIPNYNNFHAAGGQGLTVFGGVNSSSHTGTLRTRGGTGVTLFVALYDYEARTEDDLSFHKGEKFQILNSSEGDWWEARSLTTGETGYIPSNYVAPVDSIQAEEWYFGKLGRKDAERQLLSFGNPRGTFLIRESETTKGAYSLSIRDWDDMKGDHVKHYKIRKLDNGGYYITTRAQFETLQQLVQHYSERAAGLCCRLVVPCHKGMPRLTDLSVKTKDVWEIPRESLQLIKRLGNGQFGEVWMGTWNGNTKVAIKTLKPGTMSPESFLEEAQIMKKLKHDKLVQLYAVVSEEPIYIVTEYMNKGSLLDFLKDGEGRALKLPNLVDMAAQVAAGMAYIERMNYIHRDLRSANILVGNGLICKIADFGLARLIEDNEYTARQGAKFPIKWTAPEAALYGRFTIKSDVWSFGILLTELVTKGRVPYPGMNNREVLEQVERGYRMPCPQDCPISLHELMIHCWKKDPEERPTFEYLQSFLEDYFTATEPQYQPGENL

[10] = target: Thyrotropin-releasing hormone receptor (Rattus norvegicus) (UniProt Q01717); assay: Activity against TRH/R in the Eurofins Panlabs screen (BI) by Radioactive Assay; conditions: Compound concentration 10.0 uM
Chain of Thyrotropin-releasing hormone receptor (Rattus norvegicus) (Q01717 whole entry): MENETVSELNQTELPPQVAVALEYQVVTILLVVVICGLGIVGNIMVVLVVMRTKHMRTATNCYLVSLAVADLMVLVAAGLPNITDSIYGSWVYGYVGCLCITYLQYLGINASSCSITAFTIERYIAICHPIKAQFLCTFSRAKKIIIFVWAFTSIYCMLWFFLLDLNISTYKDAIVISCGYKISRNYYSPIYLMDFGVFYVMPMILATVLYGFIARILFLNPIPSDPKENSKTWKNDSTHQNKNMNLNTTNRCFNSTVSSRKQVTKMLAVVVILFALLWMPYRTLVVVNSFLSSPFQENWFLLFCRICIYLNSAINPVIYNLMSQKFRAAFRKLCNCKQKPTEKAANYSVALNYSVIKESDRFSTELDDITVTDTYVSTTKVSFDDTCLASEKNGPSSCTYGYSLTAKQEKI

Rattus norvegicus [11] = species on record: Rattus norvegicus; assay: Activity against BETA/R in the Eurofins Panlabs screen (BI) by Radioactive Assay; conditions: Compound concentration 10.0 uM
[12] = target: Endothelin receptor type B (Rattus norvegicus) (UniProt P21451); assay: Activity against ETB/R in the Eurofins Panlabs screen (BI) by Radioactive Assay; conditions: Compound concentration 10.0 uM
[13] = target: Glutamate receptor 1 (Rattus norvegicus) (UniProt P19490); assay: Activity against AMPA/RA in the Eurofins Panlabs screen (BI); conditions: Compound concentration 10.0 uM
Chain of Glutamate receptor 1 (Rattus norvegicus) (P19490 whole entry): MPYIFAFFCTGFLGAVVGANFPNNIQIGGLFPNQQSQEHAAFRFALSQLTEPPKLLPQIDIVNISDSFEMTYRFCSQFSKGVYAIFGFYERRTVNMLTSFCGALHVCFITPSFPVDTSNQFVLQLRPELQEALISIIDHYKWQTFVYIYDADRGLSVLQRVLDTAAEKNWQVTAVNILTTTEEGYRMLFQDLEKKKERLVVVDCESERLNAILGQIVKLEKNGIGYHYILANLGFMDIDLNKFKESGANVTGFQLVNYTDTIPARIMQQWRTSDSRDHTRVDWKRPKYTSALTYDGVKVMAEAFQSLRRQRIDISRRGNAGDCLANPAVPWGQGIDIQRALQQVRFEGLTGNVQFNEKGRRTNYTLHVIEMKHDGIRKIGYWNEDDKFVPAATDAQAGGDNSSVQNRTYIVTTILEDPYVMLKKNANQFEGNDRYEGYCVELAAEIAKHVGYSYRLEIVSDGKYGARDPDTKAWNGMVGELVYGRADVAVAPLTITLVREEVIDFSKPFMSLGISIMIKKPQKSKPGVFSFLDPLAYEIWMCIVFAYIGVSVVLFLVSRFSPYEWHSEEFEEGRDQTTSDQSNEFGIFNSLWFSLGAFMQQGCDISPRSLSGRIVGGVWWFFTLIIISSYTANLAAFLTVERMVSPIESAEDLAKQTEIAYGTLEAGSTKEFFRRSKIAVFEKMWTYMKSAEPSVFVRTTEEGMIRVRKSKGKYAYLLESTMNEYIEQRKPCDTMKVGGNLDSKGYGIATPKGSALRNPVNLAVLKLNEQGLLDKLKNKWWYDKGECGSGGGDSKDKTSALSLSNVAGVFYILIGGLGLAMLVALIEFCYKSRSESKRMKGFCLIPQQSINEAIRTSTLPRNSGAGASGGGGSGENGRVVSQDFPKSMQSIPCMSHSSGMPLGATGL

[14] = target: Endothelin-1 receptor (Homo sapiens) (UniProt P25101); assay: ETA Eurofins-Cerep binding assay; design: ligand concentration 0.03 nM; conditions: Compound concentration 10.0 uM
Chain of Endothelin-1 receptor (Homo sapiens) (P25101 whole entry): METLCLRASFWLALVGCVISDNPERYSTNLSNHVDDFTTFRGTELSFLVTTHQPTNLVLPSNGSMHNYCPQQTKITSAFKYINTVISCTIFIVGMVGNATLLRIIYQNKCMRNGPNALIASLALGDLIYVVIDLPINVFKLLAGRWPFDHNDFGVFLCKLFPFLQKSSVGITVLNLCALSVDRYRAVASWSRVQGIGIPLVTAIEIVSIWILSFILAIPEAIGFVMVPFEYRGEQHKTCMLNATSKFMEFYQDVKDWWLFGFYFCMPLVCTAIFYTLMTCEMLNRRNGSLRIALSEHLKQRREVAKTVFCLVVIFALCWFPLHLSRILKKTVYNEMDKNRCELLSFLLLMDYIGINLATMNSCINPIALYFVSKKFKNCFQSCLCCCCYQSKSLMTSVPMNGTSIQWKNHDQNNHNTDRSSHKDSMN

[15] = target: Adenosine receptor A1 (Rattus norvegicus) (UniProt P25099); assay: Activity against A1/R in the Eurofins Panlabs screen (BI) by Radioactive Assay; conditions: Compound concentration 10.0 uM
[16] = target: Glutamate receptor ionotropic, kainate 1 (Rattus norvegicus) (UniProt P22756); assay: Activity against KAINATE/R in the Eurofins Panlabs screen (BI) by Radioactive Assay; conditions: Compound concentration 10.0 uM
[17] = target: Vasopressin V1a receptor (Rattus norvegicus) (UniProt P30560); assay: Activity against V1/RA in the Eurofins Panlabs screen (BI) by Radioactive Assay; conditions: Compound concentration 10.0 uM
Rattus norvegicus [18] = species on record: Rattus norvegicus; assay: Inhibitor of CALCINEUPP2B in the Eurofins Panlabs screen (BI) by Radioactive Assay; conditions: Compound concentration 10.0 uM
[19] = target: Beta-1 adrenergic receptor (Oryctolagus cuniculus) (UniProt A0A4Y6F0G0); assay: Activity against BETA1/RB in the Eurofins Panlabs screen (BI) by Radioactive Assay; conditions: Compound concentration 10.0 uM
Chain of Beta-1 adrenergic receptor (Oryctolagus cuniculus) (A0A4Y6F0G0 as listed by the source): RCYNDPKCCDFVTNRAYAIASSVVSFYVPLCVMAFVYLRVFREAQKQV

[20] = target: Angiotensin-converting enzyme (Homo sapiens) (UniProt P12821); assay: Activity against ACE(HU_AMTCH400) in the Eurofins Cerep SafetyScreen44 (BI) by Photometry (Cerep_3441); conditions: Compound concentration 10.0 uM
[21] = target: Adenosine receptor A2a (Rattus norvegicus) (UniProt P30543); assay: Activity against A2A/R in the Eurofins Panlabs screen (BI) by Radioactive Assay; conditions: Compound concentration 10.0 uM
[22] = target: Histamine H3 receptor (Rattus norvegicus) (UniProt Q9QYN8); assay: Activity against H3/R in the Eurofins Panlabs screen (BI) by […]; conditions: Compound concentration 10.0 uM
[23] = target: Sodium-dependent dopamine transporter (Homo sapiens) (UniProt Q01959); assay: dopamine transporter Eurofins-Cerep binding assay; conditions: Compound concentration 10.0 uM
Chain of Sodium-dependent dopamine transporter (Homo sapiens) (Q01959 whole entry): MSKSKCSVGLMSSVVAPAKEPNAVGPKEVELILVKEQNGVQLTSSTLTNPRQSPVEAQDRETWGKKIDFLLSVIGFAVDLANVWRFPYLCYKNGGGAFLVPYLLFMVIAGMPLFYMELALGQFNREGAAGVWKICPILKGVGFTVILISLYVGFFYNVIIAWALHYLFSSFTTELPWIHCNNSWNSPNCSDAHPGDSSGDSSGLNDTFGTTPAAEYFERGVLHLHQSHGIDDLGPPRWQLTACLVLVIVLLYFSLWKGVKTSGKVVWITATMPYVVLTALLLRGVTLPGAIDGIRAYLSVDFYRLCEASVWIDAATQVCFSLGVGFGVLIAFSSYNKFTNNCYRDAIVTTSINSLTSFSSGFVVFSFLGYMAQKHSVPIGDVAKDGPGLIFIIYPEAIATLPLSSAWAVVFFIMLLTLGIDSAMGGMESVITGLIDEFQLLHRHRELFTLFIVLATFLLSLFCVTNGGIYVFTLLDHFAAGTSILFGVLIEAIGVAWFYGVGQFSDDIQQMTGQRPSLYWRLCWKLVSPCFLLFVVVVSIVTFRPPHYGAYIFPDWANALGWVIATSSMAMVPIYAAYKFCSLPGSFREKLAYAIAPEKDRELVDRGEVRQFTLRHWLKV

[24] = target: Sodium-dependent serotonin transporter (Homo sapiens) (UniProt P31645); assay: 5-HT transporter Eurofins-Cerep binding assay; design: ligand concentration 2 nM; conditions: Compound concentration 10.0 uM
[25] = target: D(3) dopamine receptor (Homo sapiens) (UniProt P35462); assay: Activity against D3/HU in the Eurofins Panlabs screen (BI) by Scintillation counting; conditions: Compound concentration 10.0 uM
[26] = target: G_PROTEIN_RECEP_F1_2 domain-containing protein (Cavia porcellus) (UniProt A0A286XTF2); assay: Activity against DELTA/GP in the Eurofins Panlabs screen (BI) by Radioactive Assay; conditions: Compound concentration 10.0 uM
[27] = target: Neuropeptide Y receptor type 2 (Oryctolagus cuniculus) (UniProt G1TSD5); assay: Activity against Y2/RB in the Eurofins Panlabs screen (BI) by Radioactive Assay; conditions: Compound concentration 10.0 uM
Chain of Neuropeptide Y receptor type 2 (Oryctolagus cuniculus) (G1TSD5 as listed by the source): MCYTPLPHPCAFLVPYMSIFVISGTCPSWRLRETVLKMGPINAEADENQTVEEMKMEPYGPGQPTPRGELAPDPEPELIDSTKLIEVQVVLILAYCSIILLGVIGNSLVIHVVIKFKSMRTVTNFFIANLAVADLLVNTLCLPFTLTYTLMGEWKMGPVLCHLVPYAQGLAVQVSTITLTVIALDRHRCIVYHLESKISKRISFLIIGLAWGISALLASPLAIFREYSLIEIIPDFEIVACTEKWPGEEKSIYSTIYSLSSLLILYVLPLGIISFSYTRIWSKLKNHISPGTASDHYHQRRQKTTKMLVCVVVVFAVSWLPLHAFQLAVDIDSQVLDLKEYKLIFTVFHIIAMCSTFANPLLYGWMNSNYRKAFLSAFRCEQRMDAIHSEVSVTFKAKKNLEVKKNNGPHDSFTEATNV

[28] = target: Cysteinyl leukotriene receptor 1 (Cavia porcellus) (UniProt Q2NNR5); assay: Activity against LTD4/GP in the Eurofins Panlabs screen (BI) by Radioactive Assay; conditions: Compound concentration 10.0 uM
[29] = target: Mu-type opioid receptor (Cavia porcellus) (UniProt P97266); assay: Activity against MU/GP in the Eurofins Panlabs screen (BI) by Radioactive Assay; conditions: Compound concentration 10.0 uM
Chain of Mu-type opioid receptor (Cavia porcellus) (P97266 whole entry): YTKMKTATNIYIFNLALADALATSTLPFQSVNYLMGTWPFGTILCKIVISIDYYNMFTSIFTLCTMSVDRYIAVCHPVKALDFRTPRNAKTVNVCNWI

[30] = target: Alpha-2A adrenergic receptor (Oryctolagus cuniculus) (UniProt Q5ZQK3); assay: Activity against ALPHA2A/RB in the Eurofins Panlabs screen (BI) by Radioactive Assay; conditions: Compound concentration 10.0 uM
[31] = target: Muscarinic acetylcholine receptor M3 (Rattus norvegicus) (UniProt P08483); assay: Activity against M3/R in the Eurofins Panlabs screen (BI) by Radioactive Assay; conditions: Compound concentration 10.0 uM
Chain of Muscarinic acetylcholine receptor M3 (Rattus norvegicus) (P08483 whole entry, looked up): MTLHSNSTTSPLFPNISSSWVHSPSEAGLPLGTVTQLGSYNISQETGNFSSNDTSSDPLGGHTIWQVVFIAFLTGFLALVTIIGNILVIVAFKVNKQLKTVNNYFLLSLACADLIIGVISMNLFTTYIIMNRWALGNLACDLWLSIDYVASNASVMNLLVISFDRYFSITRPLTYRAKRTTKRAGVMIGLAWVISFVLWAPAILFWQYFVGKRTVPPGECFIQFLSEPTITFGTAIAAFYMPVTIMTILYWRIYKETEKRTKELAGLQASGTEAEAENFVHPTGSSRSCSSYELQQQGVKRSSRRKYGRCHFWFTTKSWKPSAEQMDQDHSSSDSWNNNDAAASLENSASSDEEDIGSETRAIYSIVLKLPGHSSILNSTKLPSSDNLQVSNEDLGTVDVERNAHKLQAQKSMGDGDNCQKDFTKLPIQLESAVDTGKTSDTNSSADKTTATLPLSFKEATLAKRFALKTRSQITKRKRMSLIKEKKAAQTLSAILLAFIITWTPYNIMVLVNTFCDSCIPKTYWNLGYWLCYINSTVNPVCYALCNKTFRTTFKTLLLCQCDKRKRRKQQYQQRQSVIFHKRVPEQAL

[32] = target: Protein kinase C alpha type (Homo sapiens) (UniProt P17252); assay: Inhibitor of PKCALPHA in the Eurofins Panlabs screen (BI) by Radioactive Assay; conditions: Compound concentration 10.0 uM
[33] = target: Gamma-aminobutyric acid receptor subunit alpha-1 (Rattus norvegicus) (UniProt P62813); assay: Activity against GABAACL+ in the Eurofins Panlabs screen (BI) by Radioactive Assay; conditions: Compound concentration 10.0 uM
Rattus norvegicus [34] = species on record: Rattus norvegicus; assay: KV channel Eurofins-Cerep binding assay; design: ligand concentration 0.01 nM; conditions: Compound concentration 10.0 uM
[35] = target: 5-hydroxytryptamine receptor 2A (Homo sapiens) (UniProt P28223); assay: Agonist activity in the Eurofins Cerep SafetyScreen44 (BI) against 5HT2AH_AGON by Scintillation counting (Cerep_471); conditions: Compound concentration 10.0 uM
[36] = target: T1, Neuropeptide Y receptor type 2 (Homo sapiens, UniProt P49146); assay: Radioligand binding assay (NPY2R, SMS-KAN cells); format: cell-based
T1 sequence (P49146 whole entry): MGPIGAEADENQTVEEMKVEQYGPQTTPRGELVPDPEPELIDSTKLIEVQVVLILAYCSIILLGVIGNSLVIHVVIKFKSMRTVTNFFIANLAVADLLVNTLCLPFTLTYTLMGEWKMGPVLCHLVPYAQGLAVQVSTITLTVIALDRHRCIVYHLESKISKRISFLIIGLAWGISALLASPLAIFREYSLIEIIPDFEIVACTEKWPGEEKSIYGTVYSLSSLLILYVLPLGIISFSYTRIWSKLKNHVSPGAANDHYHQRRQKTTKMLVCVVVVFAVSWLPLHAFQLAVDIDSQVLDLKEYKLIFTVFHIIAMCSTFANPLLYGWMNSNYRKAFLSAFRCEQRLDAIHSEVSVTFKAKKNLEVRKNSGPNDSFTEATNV

N=C(N)NCCC[C@@H](NC(=O)C(c1ccccc1)c1ccccc1)C(=O)NCc1ccc(CNC(N)=O)cc1 showed a residual activity [1] of 107%, a residual activity [2] of 103% and a residual activity [3] of 84%. For the same compound, the residual activity [4] was 102%, the residual activity [5] was 98% and the activity at 10 µM [6] was 70% (not active). It also gave a residual activity [7] of 114%, a residual activity [8] of 108% and a residual activity [9] of 84%. It also gave a residual activity [10] of 84%, a residual activity (Rattus norvegicus [11]) of 106% and a residual activity [12] of 98%. For the same compound, the residual activity [13] was 96%, the residual activity [14] was 112% and the residual activity [15] was 99%. For the same compound, the residual activity [16] was 103%, the residual activity [17] was 98% and the residual activity (Rattus norvegicus [18]) was 90%. For the same compound, the residual activity [19] was 82%, the residual activity [20] was 103% and the residual activity [21] was 97%. It also gave a residual activity [22] of 104%, a residual activity [23] of 79% and a residual activity [24] of 84%. For the same compound, the residual activity [25] was 98%, the residual activity [26] was 80% and the residual activity [27] was 62%. The residual activity [28] was 109%, the residual activity [29] was 104% and the residual activity [30] was 82%. It also gave a residual activity [31] of 85%, a residual activity [32] of 80% and a residual activity [33] of 84%. For the same compound, the residual activity (Rattus norvegicus [34]) was 100%, the residual activity [35] was 60% and the IC50 [36] was > 10 µM (not active).
